The target in one test is T1, p38α (Homo sapiens, UniProt Q16539).
T1 construct: purchased Calbiochem 559324; host or cells: E. coli
Nature of the test: p38 Kinase Assay (ATF-2 phosphorylation ELISA). Type of test: biochemical. The note with it: 2 h pre-incubation, ATP 250 μM, 1% DMSO; read-out: p38α inhibition (IC50 values). The procedure:
Human recombinant p38 enzyme expressed in E. coli and activated by incubation with MKK6 enzyme (Calbiochem #559324) is used as source of enzyme activity.
The assay is carried in high binding, clear, flat bottom 96 well assay plates which have been coated with recombinant ATF-2 (Biosource #PHF0043). Test compounds are incubated with p38 kinase for 2 h prior to initiating the kinase assay by the addition of ATP to obtain an assay concentration of 250 μM. Phosphorylation of ATF-2 is detected and quantified using an ELISA. This consists of sequential incubation in the presence of anti-phospho-ATF2, biotinylated anti-IgG and streptavidin-HRP. Incubation with an HRP chromogenic substrate (TMB) results in absorbance that is proportional to the amount of phosphorylated substrate produced. Absorbance is detected using a multiwell plate reader.
Compounds are diluted in DMSO prior to addition to assay buffer, the final DMSO concentration in the assay being 1%.
The IC50 is defined as the concentration at which a given compound achieves 50% inhibition of control.
In general terms: An ELISA detects its analyte on a solid surface through an enzyme-linked reagent.

The subject of test [1] is TNFα release from LPS activated THP-1 cells or PBMC's. Nature of the test: p38 Functional Assay (TNFα release after LPS). Particulars: Homo sapiens, 1 h pre-treatment, 0.3% DMSO, read-out: EC50 (inhibition of TNFα release). Type of test: cell-based. The procedure: Inhibition of cellular p38 depresses the release of TNFα, a functional response which is quantified by measurement of the amount of TNFα in the supernatants of LPS activated THP-1 cells (an immortalised monocytic cell line) or peripheral blood mononuclear cells (PBMC's) isolated from freshly drawn human blood.
Cells seeded in 96 well plates are pre-treated by the addition of p38 inhibitors for 1 h followed by addition of lipopolysaccharide (LPS) to activate cytokine production and release. The amount of TNFα released into the cell supernatants is quantified using an R&D Systems enzyme linked immunosorbant assay (ELISA) kit (product DY210) following the manufacturers instructions.
Compounds are diluted in DMSO prior to addition, the final DMSO concentration in the assay being 0.3%. The EC50 is defined as the concentration at which a given compound achieves 50% inhibition of the control.

As a reminder, the IC50 is the concentration at which inhibition is half-maximal. For orientation: EC50 means the concentration giving half of the maximal effect.

T1 sequence (Q16539 whole entry): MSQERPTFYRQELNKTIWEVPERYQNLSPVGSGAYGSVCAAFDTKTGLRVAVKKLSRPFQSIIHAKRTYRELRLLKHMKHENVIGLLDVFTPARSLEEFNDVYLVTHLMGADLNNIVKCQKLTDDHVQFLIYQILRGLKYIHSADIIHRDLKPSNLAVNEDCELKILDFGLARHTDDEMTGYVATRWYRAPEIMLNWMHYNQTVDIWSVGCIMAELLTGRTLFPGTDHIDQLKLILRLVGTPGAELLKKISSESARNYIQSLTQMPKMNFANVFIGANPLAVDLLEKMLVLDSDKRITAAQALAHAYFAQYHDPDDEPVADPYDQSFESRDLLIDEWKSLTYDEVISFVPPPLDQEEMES

As to `O=C(NCC1CC1)c1cccc(Sc2ccc3nnc(-c4cccc(OCCN5CCOCC5)c4)n3c2)c1` [Example 1, N-Cyclopropylmethyl-3-{3-[3-(2-morpholin-4-yl-ethoxy)-phenyl]-[1,2,4]triazolo[4,3-a]pyridin-6-ylsulfanyl}-benzamide], at p38α, the IC50 was 500 to 2000 nM. The EC50 in test [1] fell in the range of 500 to 7000 nM.

On to `O=C(Nc1cccc(N2CCOCC2)c1)c1cccc(Sc2ccc3nnc(-c4cccc(OCCN5CCOCC5)c4)n3c2)c1` [Example 2], for which, on p38α, the IC50 fell in the range of 100 to 500 nM. Moreover, in test [1], the half-maximal effective concentration (EC50) lay within 100 to 500 nM.

On to `O=C(Nc1ccnc(N2CCOCC2)c1)c1cccc(Sc2ccc3nnc(-c4cccc(OCCN5CCOCC5)c4)n3c2)c1` [Example 3], for which the IC50 on p38α was 100 to 500 nM. Also, in test [1], the EC50 is 10 to 100 nM.

`Cc1ccc(-n2nc(C(C)(C)C)cc2NC(=O)Cc2ccc(Sc3ccc4nnc(C(C)C)n4c3)cc2)cc1` [Example 6]: the half-maximal inhibitory concentration (IC50) at p38α was less than 10 nM. Besides, in test [1], the concentration for a half-maximal effect (EC50) was 10 to 100 nM.

Consider `Cc1ccc(-n2nc(C(C)(C)C)cc2NC(=O)Cc2ccc(Sc3ccc4nnc(-c5cccc(OCc6ccccc6)c5)n4c3)cc2)cc1` [Example 8], for which the half-maximal inhibitory concentration (IC50) at p38α fell in the range of 10 to 100 nM. The EC50 in test [1] is 100 to 500 nM.

For the compound `Cc1ccc(-n2nc(C(C)(C)C)cc2NC(=O)Nc2ccc(Sc3ccc4nnc(-c5cccc(OCc6ccccc6)c5)n4c3)cc2)cc1` [Example 11], the IC50 at p38α was in the range of 500 to 2000 nM. The EC50 in test [1] lay within 100 to 500 nM.

`Cc1ccc(-n2nc(C(C)(C)C)cc2NC(=O)Nc2ccc(Sc3ccc4nnc(-c5cccc(OCCN6CCOCC6)c5)n4c3)nc2)cc1` [Example 12, 1-(5-tert-Butyl-2-p-tolyl-2H-pyrazol-3-yl)-3-(6-{3-[3-(2-morpholin-4-yl-ethoxy)-phenyl]-[1,2,4]triazolo[4,3-a]pyridin-6-ylsulfanyl}-pyridin-3-yl)-urea]: the IC50 at p38α was in the range of 10 to 100 nM. The EC50 in test [1] was in the range of 10 to 100 nM.

With `Cc1ccc(-n2nc(C(C)(C)C)cc2NC(=O)Nc2ccc(Sc3ccc4nnc(-c5cccc(OCCN6CCOCC6)c5)n4c3)cn2)cc1` [Example 13, 1-(5-tert-Butyl-2-p-tolyl-2H-pyrazol-3-yl)-3-(5-{3-[3-(2-morpholin-4-yl-ethoxy)-phenyl]-[1,2,4]triazolo[4,3-a]pyridin-6-ylsulfanyl}-pyridin-2-yl)-urea], the IC50 at p38α is 100 to 500 nM. Moreover, the EC50 in test [1] was 10 to 100 nM.

For the compound `Cc1ccc(-n2nc(C(C)(C)C)cc2NC(=O)N[C@H]2CC[C@H](Oc3ccc4nnc(-c5cccc(OCCN6CCOCC6)c5)n4c3)CC2)cc1` [Example 14, 1-(5-tert-Butyl-2-p-tolyl-2H-pyrazol-3-yl)-3-(trans-4-{3-[3-(2-morpholin-4-yl-ethoxy)-phenyl]-[1,2,4]triazolo[4,3-a]pyridin-6-yloxy}-cyclohexyl)-urea], on p38α, the IC50 fell in the range of 10 to 100 nM. For the same compound, the half-maximal effective concentration (EC50) in test [1] was in the range of 10 to 100 nM.

For `Cc1ccc(-n2nc(C(C)(C)C)cc2NC(=O)N[C@H]2CC[C@@H](Oc3ccc4nnc(-c5cccc(OCCN6CCOCC6)c5)n4c3)CC2)cc1` [Example 15], the IC50 at p38α lay within 100 to 500 nM. For the same compound, the EC50 in test [1] lay within 500 to 7000 nM.

`CC(C)(C)c1cc(NC(=O)N[C@H]2CC[C@H](Oc3ccc4nnc(-c5cccc(OCCN6CCOCC6)c5)n4c3)CC2)n(-c2ccccc2)n1` [Example 16]: the 50% inhibitory concentration (IC50) on p38α lay in the range of 10 to 100 nM. The concentration for a half-maximal effect (EC50) in test [1] was in the range of 500 to 7000 nM.

With `Cc1ccc(-n2nc(C(C)(C)C)cc2NC(=O)CN2CCC(Oc3ccc4nnc(-c5cccc(OCCN6CCOCC6)c5)n4c3)CC2)cc1` [Example 17, N-(5-tert-Butyl-2-p-tolyl-2H-pyrazol-3-yl)-2-(4-{3-[3-(2-morpholin-4-yl-ethoxy)-phenyl]-[1,2,4]triazolo[4,3-a]pyridin-6-yloxy}-piperidin-1-yl)-acetamide], the IC50 on p38α is 500 to 2000 nM. In addition, the EC50 in test [1] was 500 to 7000 nM.

As for `Cc1ccc(-n2nc(C(C)(C)C)cc2NC(=O)Cc2ccc(Sc3ccc4nnc(-c5cccc(O)c5)n4c3)cc2)cc1` [Example 18, N-(5-tert-Butyl-2-p-tolyl-2H-pyrazol-3-yl)-2-{4-[3-(3-hydroxy-phenyl)-[1,2,4]triazolo[4,3-a]pyridin-6-ylsulfanyl]-phenyl}-acetamide], the IC50 at p38α is less than 10 nM. Besides, the half-maximal effective concentration (EC50) in test [1] lay in the range of 10 to 100 nM.

Regarding `CC(C)c1nnc2ccc(Sc3ccc(CC(=O)Nc4cc(C(C)(C)C)nn4-c4ccc(OCCN5CCOCC5)cc4)cc3)cn12` [Example 19, N-{5-tert-Butyl-2-[4-(2-morpholin-4-yl-ethoxy)-phenyl]-2H-pyrazol-3-yl}-2-[4-(3-isopropyl-[1,2,4]triazolo[4,3-a]pyridin-6-ylsulfanyl)-phenyl]-acetamide], the IC50 at p38α is 500 to 2000 nM. The EC50 in test [1] fell in the range of 500 to 7000 nM.

For `CC(C)c1nnc2ccc(Sc3ccc(CC(=O)Nc4cc(C(C)(C)C)nn4-c4ccc(O)cc4)cc3)cn12` [Example 20, N-[5-tert-Butyl-2-(4-hydroxy-phenyl)-2H-pyrazol-3-yl]-2-[4-(3-isopropyl-[1,2,4]triazolo[4,3-a]pyridin-6-ylsulfanyl)-phenyl]-acetamide], on p38α, the IC50 is 10 to 100 nM. Further, the EC50 in test [1] was 10 to 100 nM.

For `Cc1ccc(-n2nc(C(C)(C)C)cc2NC(=O)N[C@H]2CC[C@H](Oc3ccc4nnc(C(C)C)n4c3)CC2)cc1` [Example 21, 1-(5-tert-Butyl-2-p-tolyl-2H-pyrazol-3-yl)-3-[4-(3-isopropyl-[1,2,4]triazolo[4,3-a]pyridin-6-yloxy)-cyclohexyl]-urea], the 50% inhibitory concentration (IC50) on p38α lay within 10 to 100 nM. In test [1], the 50% effective concentration (EC50) lay within 10 to 100 nM.

With `Cc1ccc(-n2nc(C(C)(C)C)cc2NC(=O)C[C@H]2CC[C@H](Oc3ccc4nnc(C(C)C)n4c3)CC2)cc1` [Example 22, N-(5-tert-Butyl-2-p-tolyl-2H-pyrazol-3-yl)-2-[4-(3-isopropyl-[1,2,4]-triazolo[4,3-a]pyridin-6-yloxy)-cyclohexyl]-acetamide], the IC50 on p38α was in the range of 500 to 2000 nM. Also, the half-maximal effective concentration (EC50) in test [1] lay within 500 to 7000 nM.

Turning to `Cc1ccc(-n2nc(C(C)(C)C)cc2NC(=O)Cc2ccc(Oc3ccc4nnc(C(C)C)n4c3)cc2)cc1` [Example 23, N-(5-tert-Butyl-2-p-tolyl-2H-pyrazol-3-yl)-2-[4-(3-isopropyl-[1,2,4]triazolo[4,3-a]pyridin-6-yloxy)-phenyl]-acetamide], the IC50 on p38α is less than 10 nM. For the same compound, in test [1], the half-maximal effective concentration (EC50) was less than 10 nM.

For `Cc1ccc(-n2nc(C(C)(C)C)cc2NC(=O)C(C)c2ccc(Sc3ccc4nnc(C(C)C)n4c3)cc2)cc1` (centres unmarked) [Example 24, N-(5-tert-Butyl-2-p-tolyl-2H-pyrazol-3-yl)-2-[4-(3-isopropyl-[1,2,4]triazolo[4,3-a]pyridin-6-ylsulfanyl)-phenyl]-propionamide], on p38α, the half-maximal inhibitory concentration (IC50) lay within 100 to 500 nM.

Consider `Cc1ccc(-n2nc(C(C)(C)C)cc2NC(=O)N[C@H]2CC[C@H](Oc3ccc4nnc(C5CCCC5)n4c3)CC2)cc1` [Example 25, 1-(5-tert-Butyl-2-p-tolyl-2H-pyrazol-3-yl)-3-[4-(3-cyclopentyl-[1,2,4]triazolo[4,3-a]pyridin-6-yloxy)-cyclohexyl]-urea], for which, on p38α, the half-maximal inhibitory concentration (IC50) was less than 10 nM.

As to `CC(C)c1nnc2ccc(Sc3ccc(CC(=O)Nc4cc(C(C)(C)C)nn4-c4cccc(OCCc5ccncc5)c4)cc3)cn12` [Example 27, N-{5-tert-Butyl-2-[3-(2-pyridin-4-yl-ethoxy)-phenyl]-2H-pyrazol-3-yl}-2-[4-(3-isopropyl-[1,2,4]triazolo[4,3-a]pyridin-6-ylsulfanyl)-phenyl]-acetamide], the IC50 on p38α lay within 10 to 100 nM.

For the compound `Cc1ccc(-n2nc(C(C)(C)C)cc2NC(=O)c2cccc(Sc3ccc4nnc(C(C)C)n4c3)c2)cc1` [Example 28], the IC50 on p38α was 10 to 100 nM.

As for `Cc1ccc(-n2nc(C(C)(C)C)cc2NC(=O)NC2CCC(Oc3ccc4nnc(-c5ccccn5)n4c3)CC2)cc1` (centres unmarked) [Example 29, 1-(5-tert-Butyl-2-p-tolyl-2H-pyrazol-3-yl)-3-[4-(3-pyridin-2-yl-[1,2,4]triazolo[4,3-a]pyridin-6-yloxy)-cyclohexyl]-urea], at p38α, the concentration for half-maximal inhibition (IC50) is 10 to 100 nM.

Source of the values: patent US8557797B2, “Triazolopyridine derivatives and their therapeutic use” (Chiesi Farmaceutici S.p.A., priority 2009, dated 2013).
